According to US20210386791A1, “METHODS OF CELLULAR REPROGRAMMING” (TissueTech, Inc., priority 2018, published 2021):

System: human corneal fibroblasts (HCF)
Assay: P3 HCF on plastic with or without immobilized HA or HC-HA/PTX3, with or without TGFβ1: mRNA, ELISA, Western blot, immunostaining
Format: cell-based
Protocol: A total of 89 human corneas from individuals aged 18-76 years and maintained at 4° C. in Optisol (Chiron Vision, Irvine, Calif.) for less than 7 days after death were obtained from the Florida Lions Eye Bank (Miami, Fla.) and handled according to the declaration of Helsinki. HCF were isolated and cultured. Epithelial and endothelial cells were removed from corneas, the stroma was cut into cubes of approximately 1 mm^3, incubated in 2 mg/ml collagenase for 16 h at 37° C., and then placed in a culture medium consisting of Dulbecco's modified Eagle's medium (DMEM) supplemented with 10% fetal bovine serum containing […]. The culture medium was changed twice a week. The morphology of the cells was monitored by Nikon Eclipse TS 100 microscope (Melville, N.Y.). Cells cultured to passage 3 (P3) were used for all experiments.
Human corneal fibroblasts (P3) were seeded on plastics with or without immobilized HC-HA/PTX3 complex for 72 h in DMEM+10% FBS, then serum starved for 24 h and treated with or without TGFβ1 for 24 h before being harvested for mRNA quantitation or immunostaining. For determination of protein of TGFβ receptor or p75NTR, the cells were treated with or without TGF-β1 for 48 h before collection of protein samples because the protein expression lags behind mRNA expression. For TGF-β1 ELISA, the cells were treated with or without TGF-β1 for 24 h, and then cultured in the fresh medium for another 24 h. The supernatants were collected for TGFβ1 ELISA. For TGFβ2 and TGFβ3 ELISA, the cells were treated with or without TGFβ1 for 48 h. Certain HCF were seeded on glass in DMEM+10% FBS for 24 h, then in DMEM+ITS (insulin-transferrin-selenium) for 24 h, treated with/without PBS or hyaluronic acid (HA) or HC-HA/PTX3±TGFβ1 (10 ng/ml)±Marimastat (10 μM) or ±DAPT (10 μM) or ±both for 0, 5, 15, 30 and 45 minutes before being harvested for immunostaining of CD44-ICD, JNK1, Cyclin D1 and p75NTR and for 5 minutes before being harvested for Western blotting of cytoplasmic and nuclear CD44-ICD, active MT1-MMP, and active γ-secretase after compartmental separation of the cellular components.
Total RNAs were extracted using RNeasy Mini Kit and were reverse transcribed using High Capacity Reverse Transcription Kit (Applied Biosystems). cDNA obtained was amplified by real-time RT-PCR using specific primer-probe mixtures and DNA polymerase in 7000 Real-time PCR System (Thermo-Fisher Scientific, Carlsbad, Calif.). Real-time RT-PCR profile consisted of 10 minutes of initial activation at 95° C., followed by 40 cycles of 15 seconds denaturation at 95° C., and 1 min annealing and 1 min extension at 60° C. The genuine identity of each PCR product was confirmed by the size determination using 2% agarose gels followed by ethidium bromide staining together with PCR marker according to EC3 Imaging System (BioImaging System, Upland, Calif.).
The Quantikine Human ELISA Kits of TGFβs were used for determination of TGFβs following the manufacturer's instructions (R and D Systems, Minneapolis, Minn.).
HCF, induced human corneal endothelial cells (HCEC), and HCEC monolayer cultures were air-dried and fixed in 4% formaldehyde, pH 7.0, for 15 min at room temperature, rehydrated in PBS, incubated with 0.2% Triton X-100 for 15 min, and rinsed three times with PBS for 5 min each. After incubation with 2% BSA to block non-specific staining for 30 min, they were incubated with the desired first antibody (all at 1:50 dilution) for 16 h at 4° C. After three washes with PBS, they were incubated with corresponding Alexa-Fluor-conjugated secondary IgG (all 1:100 dilutions) for 60 min. The samples were then counterstained with Hoechst 33342 and analyzed with Zeiss LSM 700 confocal microscope (Thornhood, N.Y.). Corresponding mouse and rabbit sera were used as negative controls for primary monoclonal and polyclonal antibodies, respectively. […]

hyaluronic acid [HA] was tested, and the “expression of NC markers (p75NTR, HNK1, Sox9, KLF4, Snail1, MSX1)” value (absence of TGFβ1) was “only upregulated expression of HNK1”, the “keratocan mRNA and protein” value (absence of TGFβ1) was “upregulated mRNA but not protein of keratocan” and the “TGFβ1 mRNA and protein level” value (after exogenous TGFβ1 (10 ng/ml)) was “upregulated”. The “nuclear translocation of pSMAD2/3 and cytoplasmic expression of α-SMA” value (exogenous TGFβ1) was “caused nuclear translocation of pSMAD2/3 and positive cytoplasmic expression of α-SMA”, the “cell shape / aggregation of P3 HCF” value (immobilized substrate, DMEM+10% FBS, 24 h) was “spindle in shape” and the keratocan upregulation (presence of TGF-β1) was “upregulation disappeared”. For the same substance, the “NC marker mRNA, p75NTR protein and p75NTR nuclear translocation” value (with TGFβ1) was “further upregulated without p75NTR nuclear translocation”.
